Reference: patent publication US20230356105A1, “TETRAAZADODECANE BASED CHELATING AGENTS FOR SEPARATION OF RARE EARTH ELEMENTS AND METHOD THEREFOR” (Ustav Organicke Chemie a Biochemie AV CR V.V.I., priority 2020, published 2023)
Several values for one entry are separate records, joined by “and”; a condition that tells them apart may be missing. Identical values can stand only once.

Columns and labels:
[1] = Separation of industrially relevant binary mixtures by precipitation using L1, L2 and L3 (Example 10); format: physicochemical; conditions: supernatant
Procedure: Analogous to Example 7), three sets of reaction mixtures with two metals and either compound L1, L2, or L3 were prepared in a 96-well plate with the following differences: each well was equipped with one PTFE-coated magnetic stir bar, the well plate was sealed with a silicon cover, and the reaction mixtures were stirred on a magnetic stirrer for 2 days at room temperature. Analogous to Example 7), the well plate was then centrifuged and concentrations of the metals were determined using ICP-OES. […] It is evident from the results that certain degrees of enrichment are achieved for very different combinations of metals, and that ligands L1, L2, and L3 have different selectivities for given combinations of metals.

[2] = Separation of Nd/Pr mixture by repeated precipitation using L5 and α-HIBA (Example 19); format: physicochemical; conditions: for Precipitate concentration [mM] Nd / precipitate concentration [mM] Pr: dissolved to 200 μL
Procedure: Stock solutions were pipetted into 4 mL glass vials to prepare reaction mixtures with concentrations as follows: • 1. 11 mM (1.1 eq) chelator L5 • 2. 5 mM (0.5 eq) PrCl3 • 3. 5 mM (0.5 eq) NdCl3 • 4. […] (4 eq) α-HIBA pH=6.5 • 5. 500 mM (50 eq) MOPS pH=7
Three aqueous reaction mixtures, numbered 1-3, were prepared with a total volume of 2 mL each and were treated identically throughout the process. A PTFE-coated magnetic stir bar was added to each and the reaction mixtures were stirred on a magnetic stirrer overnight at room temperature. After 18 hours, a 200 μL aliquot of the resulting suspension was taken from each vial and labelled as Al, A2, or A3, according to the reaction mixture number it was taken from. The aliquots were then centrifuged in a plastic Eppendorf centrifuge tube. The supernatant was carefully pipetted from each and transferred to a new set of tubes. To the precipitate was added 200 μL 1 M HCl and the mixture was stirred until full dissolution (about 1 hour at room temperature). The Nd and Pr content of these precipitate and supernatant samples was determined by ICP-OES. The remaining 1800 μL of reaction mixture were centrifuged in plastic Eppendorf centrifuge vials, and the supernatant was set aside. A sample of the supernatant was analysed on HPLC-MS and peak areas were compared to those of a standard 10 mM chelate solution; this allowed for calculation of the approximate concentration of chelate remaining in solution, and therefore of the quantity of chelate which had precipitated. The total volume for subsequent reactions was scaled according to this information, such that the concentration of chelate in solution prior to precipitation was 10 mM, even as the net quantity of chelate present was reduced. The precipitate, then, was dissolved by addition of 25 molar equivalents of 1 M HCl and transferred to a clean 4 mL glass vial with a PTFE-coated magnetic stir bar. 4 molar equivalents of a-HIBA were added to this vial, followed by 50 molar equivalents 3 M MOPS pH=7, the necessary calculated volume of water, and 25 molar equivalents 2 M NaOH to finish neutralising the reaction mixture. (The final reaction volume here was not so important as the final reaction concentrations.) The reaction mixtures were again stirred on a magnetic stirrer at room temperature overnight. After 18 hours, the resulting suspensions were treated in the same manner as before, with 200 μL aliquots (labelled as B1, B2, B3) taken for ICP-OES determination of the Nd and Pr content of the precipitate and supernatant. The remaining 1600 μL of reaction mixture were centrifuged, and the supernatant was analysed by HPLC-MS; the precipitate was treated as before to again yield a reaction solution with an initial concentration of 10 mM of chelate. The reaction mixtures were stirred overnight for the third repetition of processing, and 200 μL aliquots (C1, C2, C3) were again treated for ICP-OES determination of Nd and Pr content in the precipitate and supernatant after 18 hours. The resulting absolute concentrations of both metals in the supernatants and precipitates, as well as calculated values of the separation factor Nd/Pr according to the formula from Example 11), are summarized in Table 13. […] The average separation factor was 1.69.

## O=C(O)CN1CCN(CC(=O)O)CCN(Cc2ccccc2)CCN(CC(=O)O)CC1 [L1, 2,2′,2″-(10-benzyl-1,4,7,10-tetraazacyclododecane-1,4,7-triyl)triacetic Acid]
[1]; M1/M2=Eu/Y
  [mM] M1: 0.118 mM
  [mM] M2: 0.265 mM
[1]; M1/M2=La/Ce
  [mM] M1: 0.603 mM
  [mM] M2: 0.388 mM
[1]; M1/M2=Nd/Ce
  [mM] M1: 0.397 mM
  [mM] M2: 0.038 mM
[1]; M1/M2=Nd/Dy
  [mM] M1: 0.204 mM
  [mM] M2: 0.302 mM
[1]; M1/M2=Nd/La
  [mM] M1: 0.177 mM
  [mM] M2: 0.559 mM
[1]; M1/M2=Nd/Pr
  [mM] M1: 0.530 mM
  [mM] M2: 0.572 mM
[1]; M1/M2=Nd/Tb
  [mM] M1: 0.325 mM
  [mM] M2: 0.142 mM
[1]; M1/M2=Pr/Ce
  [mM] M1: 0.186 mM
  [mM] M2: 0.285 mM
[1]; M1/M2=Pr/Dy
  [mM] M1: 0.216 mM
  [mM] M2: 0.157 mM
[1]; M1/M2=Pr/La
  [mM] M1: 0.246 mM
  [mM] M2: 0.569 mM
[1]; M1/M2=Tb/Dy
  [mM] M1: 0.216 mM
  [mM] M2: 0.284 mM
[1]; M1/M2=Tb/Eu
  [mM] M1: 0.206 mM
  [mM] M2: 0.159 mM
[1]; M1/M2=Tb/Pr
  [mM] M1: 0.116 mM
  [mM] M2: 0.211 mM
[1]; M1/M2=Tb/Y
  [mM] M1: 0.143 mM
  [mM] M2: 0.361 mM

## O=C(O)CN1CCN(CC(=O)O)CCN(Cc2cccc3ccccc23)CCN(CC(=O)O)CC1 [L5, 2,2′,2″-(10-(naphthalene-1-ylmethyl)-1,4,7,10-tetraazacyklododekane-1,4,7-triyl)triacetic acid]
[2]; A, 1st precipitation
  Supernatant concentration [mM] Nd: 1.16 mM and 1.49 mM
  Precipitate concentration [mM] Nd: 3.34 mM and 3.17 mM and 3.59 mM
  precipitate concentration [mM] Pr: 3.57 mM and 3.50 mM and 3.83 mM
[2]; A, 1st precipitation, 20 mM (4 eq) α-HIBA
  supernatant concentration [mM] Pr: 0.73 mM and 1.00 mM and 0.72 mM
[2]; A, 1st precipitation, 20 mM (4 eq) α-HIBA, mean
  supernatant concentration [mM] Pr: 0.82 mM
[2]; A, 1st precipitation, mean
  Precipitate concentration [mM] Nd: 3.37 mM
  precipitate concentration [mM] Pr: 3.63 mM
  Supernatant concentration [mM] Nd: 1.27 mM
[2]; B, 2nd precipitation
  Supernatant concentration [mM] Nd: 0.94 mM and 0.79 mM and 0.88 mM
  supernatant concentration [mM] Pr: 0.63 mM and 0.56 mM and 0.58 mM
  Precipitate concentration [mM] Nd: 3.81 mM and 3.53 mM and 3.91 mM
  precipitate concentration [mM] Pr: 4.45 mM and 4.22 mM and 4.52 mM
[2]; B, 2nd precipitation, mean
  Precipitate concentration [mM] Nd: 3.75 mM
  precipitate concentration [mM] Pr: 4.40 mM
  Supernatant concentration [mM] Nd: 0.87 mM
  supernatant concentration [mM] Pr: 0.59 mM
[2]; C, 3rd precipitation
  Supernatant concentration [mM] Nd: 0.87 mM and 0.93 mM and 0.75 mM
  supernatant concentration [mM] Pr: 0.66 mM and 0.74 mM and 0.56 mM
  Precipitate concentration [mM] Nd: 3.70 mM and 3.29 mM and 4.06 mM
  precipitate concentration [mM] Pr: 4.70 mM and 4.31 mM and 4.98 mM
[2]; C, 3rd precipitation, mean
  Precipitate concentration [mM] Nd: 3.68 mM
  precipitate concentration [mM] Pr: 4.66 mM
  Supernatant concentration [mM] Nd: 0.85 mM
  supernatant concentration [mM] Pr: 0.65 mM
